Measured values: US20130237582A1, “PHARMACEUTICAL COMBINATION OF PACLITAXEL AND A CDK INHIBITOR” (Piramal Enterprises Limited, priority 2010, published 2013)

Legend:
[1] = system: MDA-MB-231, MDA-MB-468 and MCF-7 cell lines; test: Clonogenic assay or colony forming assay; format: cell-based, human; details: IC10, IC30, IC50 for 48 h, then 14 days drug-free
Description: MDA-MB-231, MDA-MB-468 and MCF-7 cell lines were seeded in RPMI 1460 with 10% FCS, at a density of 1500 cells/well in six well plates. […] The medium was removed at the end of the treatment and incubated in fresh medium (without drug) for 14 days. After 14 days the medium was aspirated and colonies were fixed with methanol and acetic acid mixture in the proportion of 2:1, rinsed with water and the fixation procedure was repeated. The plates were dried and colonies stained with 0.1% crystal violet for 5 min. The wells were finally rinsed with water and dried.

HIF-1α = HIF-1α reporter gene based assay (U251 HRE); format: cell-based; details: hypoxia (<1% O2), 0.01-10 μM, 20 h
Source text: 1) U251 HRE: The genetically engineered cells U251 HRE which stably express a recombinant vector in which the Luciferase reporter gene is under control of three copies of a canonical HRE. 2) U251 pGL3: A control cell line contains the firefly Luciferase reporter gene under control of the constitutively active SV40 promoter and enhancer that helps to exclude compounds that inhibit Luciferase expression in a nonspecific and/or HIF-1-independent fashion. These cells expressed high basal levels of Luciferase in normoxic conditions and slightly lower levels in hypoxic conditions.
U251 HRE cells were inoculated into 96 well white flat-bottomed plates at 10000-15000 cells/well in a volume of 180 μL and incubated for 24 h at 37° C., 5% CO2, and ambient O2. Compound A was tested at various concentrations viz. […] After 20 h incubation, the plates were removed and incubated at room temperature, 5% CO2, and ambient O2 for 1.5 h. 40 μL of Bright Glo Luciferase reagent (Promega™, USA) was added and after 3 min, luminescence was measured using a Polar Star Plate Reader (USA) in luminescence mode. Appropriate control cells (U251 pGL3) were treated identically, except that they were treated at 37° C., 5% CO2 and ambient O2. Compound toxicity was assayed using the MTS assay.

MDA-MB-231 = test: Cell cycle progression and apoptosis by flow cytometry (sub-G1); format: cell-based, human; details: for % Apoptosis: 4.5 μM
Description: Time dependent effect of Compound A on cell cycle progression and apoptosis was evaluated in two breast cancer cell lines. The asynchronous human breast cancer cell lines MCF-7 (Her low, ER+, PR+, BRCA+/−allelic loss) and MDA-MB-231 cells were seeded in […] tissue culture flask at a density of 0.5×10^6 cells per flask in RPMI 1460 with 10% FCS. After 24 h, cells were treated with 4.5 μM of Compound A for 0, 24, 48 and 72 h. Both detached and adherent cells were harvested (trypsinised) at different time points as mentioned in Table 3. After washing in phosphate buffered saline (PBS), cells were fixed in ice-cold 70% ethanol and stored at −20° C. until further analysis.
Before analysis, cells were washed twice with PBS to remove the fixative and re-suspended in PBS containing 50 μg/mL propidium iodide and 50 μg/mL RNaseA. After incubation at room temperature (20-35° C.) for 20 min, cells were analyzed using flow cytometry. A Becton Dickinson FACS Calibur flow cytometer (BD, USA) was used for these studies. The argon ion laser set at 488 nm was used as an excitation source. Cells with DNA content between 2n and 4n were designated as being in G1, S and G2/M phases of the cell cycle, as defined by the level of red fluorescence. […] The number of cells in each cell cycle compartment was expressed as a percentage of the total number of cells present. The results are shown in Table 3 and graphically presented in FIG. 3A (MCF-7 cell lines) and FIG. 3B (MDA-MB-231 cell lines).
Comparison of the effect of Compound A and PARP inhibitor BSI-201 (Iniparib developed by Sanofi-Aventis. BSI-201 is prepared in-house) on cell cycle progression and apoptosis was evaluated in two TNBC cell lines. The asynchronous human TNBC cell lines MDA-MB-231 and MDA-MB-468 were seeded in […] tissue culture flask at a density of 0.5×10^6 cells per flask in RPMI 1460 with 10% FCS. After 24 h, cells were treated either with 1.5 and 3.0 μM of Compound A or 50 μM of PARP inhibitor BSI-201 for 72 h. After the incubation cells were harvested (trypsinised) and processed as given in example 6.

Structure (SMILES): CN1CC[C@@H](c2c(O)cc(O)c3c(=O)cc(-c4ccccc4Cl)oc23)[C@@H]1CO.Cl [Compound A, (+)-trans-2-(2-Chloro-phenyl)-5,7-dihydroxy-8-(2-hydroxymethyl-1-methyl-pyrrolidin-3-yl)-chromen-4-one hydrochloride]
- colony forming potential [1]: inhibit the colony forming potential in a dose dependent manner
- expression of HIF-1α (luciferase reporter) (HIF-1α): effectively blocked the expression of HIF-1α in a dose dependent manner
- % apoptosis at 72 h (MDA-MB-231; 1.5 μM, 72 h): 27.45%
- % apoptosis at 72 h (MDA-MB-231; 3 μM, 72 h): 41.53%
- % Apoptosis (MDA-MB-231; 0 h): 1%
- % Apoptosis (MDA-MB-231; 24 h): 45%
- % Apoptosis (MDA-MB-231; 48 h): 85%
- % Apoptosis (MDA-MB-231; 72 h): 85%
